Experimental findings from patent publication US20210393547A1, “USE OF EMODIN IN TREATING RETINAL ISCHEMIA OR A DISEASE, CONDITION, OR DISORDER ASSOCIATED WITH RETINAL ISCHEMIA” (priority 2020, published 2021) are described below.

One assay deals with VEGF. The experiment in a line: Western blot of ischemic retina, VEGF to β-actin ratio. Format: in vivo, rat. As to conditions: n=6, mean±S.E. As for the experimental part: Emodin was purchased from Sigma-Aldrich (E7881; 90%; storage at 2-8° C.; from Frangula bark; St. Louis, Mo., United States). Drug administration for different procedures, namely ERG, fluorogold RGC labelling, cresyl violet retinal staining and Western blot assays, were described in Tables 3 to 6. Vehicle or emodin (5 μL) was administered via an intravitreous injection route so that these agents were then able to be directly diffused to the target. Emodin was dissolved in vehicle (DMSO:distilled water=1:3). The defined final cellular concentrations of administered drug were 0.25 or 0.5 μM, which were achieved after 40 times dilution from the stock concentrations, namely 10 or 20 μM, based on an arbitrary definition of the vitreous volume as 200 μL. To test a wider range of dose-response, 4 μM of emodin was thus added in the animal experiments. […] Denatured proteins were then obtained using lysis buffer (mammalian protein extraction reagent; […]), the samples were then sonicated and quantified to give equivalent amounts of 30 μg/30 μl/well. […] Finally, the PVDF membranes were then developed using an enhanced chemiluminescent analysis system ([…]) and scanned using an imager (Amersham Imager; LifeSciences); the amount of each protein was quantified according to scanning densitometry.

In assay [1] the test system is retinal ischemia in Wistar rats. The experiment in a line: Cresyl violet stained retinal thickness after retinal ischemia/reperfusion. As to conditions: n=10, mean±SE. Format: in vivo, rat. The procedure:
Emodin was purchased from Sigma-Aldrich (E7881; 90%; storage at 2-8° C.; from Frangula bark; St. Louis, Mo., United States). Drug administration for different procedures, namely ERG, fluorogold RGC labelling, cresyl violet retinal staining and Western blot assays, were described in Tables 3 to 6. Vehicle or emodin (5 μL) was administered via an intravitreous injection route so that these agents were then able to be directly diffused to the target. Emodin was dissolved in vehicle (DMSO:distilled water=1:3). The defined final cellular concentrations of administered drug were 0.25 or 0.5 μM, which were achieved after 40 times dilution from the stock concentrations, namely 10 or 20 μM, based on an arbitrary definition of the vitreous volume as 200 μL. To test a wider range of dose-response, 4 μM of emodin was thus added in the animal experiments. The Vehicle+IR and Emo+IR groups (pre-ischemic administration of emodin 4, 10 or 20 μM) were subjected to following the experimental procedures; these were initial pre-ischemic intravitreous injection (vehicle or emodin), retinal ischemia induction 1 day later, and sacrifice of the animal on the following day to allow the various post-mortem procedures except ERG. In the post-ischemic treatment group, in order to decrease the number of animals used, the present invention only used a single emodin concentration of 20 μM. Furthermore, intravitreous emodin was given 1 day after initial retinal ischemia induction and animals were sacrificed the following day to allow the performance of various post-mortem procedures as mentioned above. The IOP procedure used raised the IOP and was designed to cause retinal ischemia in Wistar rats and simulate ischemic retinal disorders. The rats were anesthetized and constrained with a sterotaxic frame. A 30-gauge needle connected to an elevated saline bottle was attached to anterior chamber of the rat's eye. The pressure exerted by the saline inside the bottle was controlled to 120 mmHg. This procedure was conducted for 1 hour. Successful retinal ischemia induction was confirmed by observing that the whitening of the retina took place. Throughout the experiments, the animals were kept on heat mats to maintain their temperature. The sham procedure involved keeping the pressure in saline bottle 0 mmHg. After the aforementioned sacrifice of rats, the animals underwent intracardial perfusion with normal saline. The eyeballs were then enucleated, fixed with 4% paraformaldehyde for 1 day at 4° C., dehydrated with ethanol, embedded in paraffin (Tissue-Tek TEC 5; Sakura) and sectioned into 5 μm thickness slices. The sectioned samples were then stained with cresyl violet and examined using a light microscope (Leica). All sectioned retinal samples were photographed under the same magnification (Ilford Pan-F plus film, 50 ASA). The thickness of a retina was determined by sectioning retinal samples at the same distance (1.5 mm from the disc). To evaluate the degree of the injury caused by retinal ischemia, the whole retinal thickness [from the inner limiting membrane (ILM) to the retinal pigment epithelium (RPE) layer] and the inner retinal thickness [from the ILM to the inner nuclear layer (INL)] were measured. All the measurements were carried out by an expert who was unaware of the experimental conditions used to treat the samples.

Setting [2] is: Emo10+IR: pre-ischemic intravitreous 10 μM emodin.
[3] abbreviates: Emo20+IR: pre-ischemic intravitreous 20 μM emodin.
Where [4] appears, read: IR+Emo20: post-ischemic intravitreous 20 μM emodin.

As to `Cc1cc(O)c2c(c1)C(=O)c1cc(O)cc(O)c1C2=O` [emodin, 6-methyl-1,3,8-trihydroxyanthraquinone], the “ratio of VEGF to β-actin protein level” value with VEGF (Emo10+IR: pre-ischemic intravitreous 10 μM emodin, Sham normalized to 1, Vehicle+IR 7.67) was 3.99±2.86; in the assay with VEGF (Emo20+IR: pre-ischemic intravitreous 20 μM emodin, P=0.03 vs Vehicle+IR, Sham normalized to 1), 1.23±0.44. Besides, the inner retina thickness is on record as 38.60±1.01 μm in assay [1] (Emo4+IR: pre-ischemic intravitreous 4 μM emodin, Sham 79.90, Vehicle+IR 20.97); 70.05±0.60 μm in assay [1] (setting [2]); 70.65±2.06 μm in assay [1] (setting [3]); 69.65±0.68 μm in assay [1] (setting [4]). Moreover, the whole retina thickness in assay [1] (Emo4+IR: pre-ischemic intravitreous 4 μM emodin, Sham 186.50, Vehicle+IR 71.80) is listed as 87.40±0.60 μm; in assay [1] (setting [2]) it was 153.20±1.48 μm; in assay [1] (setting [3]) it was 170.10±0.10 μm; in assay [1] (setting [4]), 125.45±1.68 μm.
